Experimental data: US20060100263A1, “Antipyretic compositions and methods” (priority 2004, published 2006)
Where a name gives a salt, the structure may show the parent alone. Marks after values point to notes of the source that are not given here.

Experiments:
[1] = blood pressure in human subjects; assay type: in vivo
[2] = target: T1, recombinant human cyclooxygenase2 (COX2) (Homo sapiens, UniProt P35354); assay: COX2 PGE2 synthesis assay; conditions: 0.1, 1, or 10 μM
T1 sequence (P35354 18-604): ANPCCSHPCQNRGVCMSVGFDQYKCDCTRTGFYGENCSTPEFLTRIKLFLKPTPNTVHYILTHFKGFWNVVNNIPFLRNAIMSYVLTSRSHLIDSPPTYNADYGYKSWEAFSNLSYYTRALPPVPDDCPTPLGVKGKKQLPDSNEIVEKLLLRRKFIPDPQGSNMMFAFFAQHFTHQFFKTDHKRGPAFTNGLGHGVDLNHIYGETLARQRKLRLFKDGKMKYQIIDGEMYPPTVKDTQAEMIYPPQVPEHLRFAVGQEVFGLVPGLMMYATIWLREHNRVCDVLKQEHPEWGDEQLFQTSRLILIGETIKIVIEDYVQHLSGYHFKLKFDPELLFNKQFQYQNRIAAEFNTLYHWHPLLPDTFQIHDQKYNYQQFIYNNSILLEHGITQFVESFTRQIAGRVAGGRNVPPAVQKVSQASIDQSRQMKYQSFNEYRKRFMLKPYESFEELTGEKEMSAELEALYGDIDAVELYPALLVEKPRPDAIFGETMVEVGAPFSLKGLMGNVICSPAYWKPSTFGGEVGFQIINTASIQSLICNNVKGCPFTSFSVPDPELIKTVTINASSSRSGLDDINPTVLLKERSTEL
Description: This was determined in assays using the rate limiting enzyme for prostaglandin synthesis, recombinant human cyclooxygenasel (COX1) and cyclooxygenase2 (COX2) expressed in Sf9 cells using a modified technique of Glaser et al (1995). These cells were incubated with arachidonic acid as the substrate (4, and 2 μM, respectively) and 0.1, 1, or 10 μM concentrations of bicifadine HCl in a suitable assay buffer. The assay mixture was incubated (10 min at 25° C. for COX1, 5 min-at 22° C. for COX2), then stopped and the amount of reaction product (PGE2) formed was measured by an enzyme-linked immunosorbent assay.

[3] = target: recombinant human cyclooxygenase1 (COX1) (Homo sapiens, UniProt P23219); assay: COX1 PGE2 synthesis assay; conditions: 0.1, 1, or 10 μM
Description: The assay mixture was incubated (10 min at 25° C. for COX1, 5 min-at 22° C. for COX2), then stopped and the amount of reaction product (PGE2) formed was measured by an enzyme-linked immunosorbent assay.

[4] = target: 5-HT2A serotonin receptor (Homo sapiens, UniProt P28223); assay: radioligand binding to 5-HT2A serotonin receptor
[5] = system: α1 adrenergic receptor; assay: [3H]prazosin binding, rat cerebral cortex preparation
Description: At the end of 60 min, the assay was terminated by vacuum filtration and the amount of radioactivity deposited on the filter measured by scintillation counting.

[6] = oral temperature of normal human subjects; assay type: in vivo; conditions: 600 mg PO single dose; for Oral Temperature at Indicated Times of Treatment: normal humans
Description: Normal humans received either a placebo or 600 mg of bicifadine HCl (PO). Oral temperature readings were taken as part of an assessment of vital signs before and after administration of a single dose.
Oral temperature readings were taken as part of an assessment of vital signs before and after administration of a single dose of bicifadine to normal humans. The placebo group consisted of 150 subjects, while the bicifadine HCl group consisted of 151 individuals.

[7] = system: α2 adrenergic receptor; assay: α2 adrenergic receptor binding
[8] = yeast-induced pyresis model in rats; assay type: in vivo, rat
Description: (§1) Groups of 6 rats were injected subcutaneously with saline solution or 40% brewers' yeast 18 hours prior to oral administration of bicifadine HCl or aspirin. The yeast was suspended in 0.85% saline and doses in a volume of 10 ml/kg. Rectal temperatures were recorded with a YSI 43TA telethermometer just prior to oral drug administration, and hourly for 3-4 hours. The post-treatment temperatures were compared to the initial temperatures of each group. Control animals were treated with vehicle and tested concurrently. In FIG. 1, the solid line represents the mean rectal temperature of normal rats (99.5° F.) and the standard error of that measure (0.1° F.) is indicated by the dashed lines.
(§2) The results shown in FIG. 1 indicate that rats treated with brewers' yeast 18 hours prior to drug administration develop a febrile response, manifested as a mean rectal temperature of 101.1° F. In contrast, normal rats treated only with vehicle have a rectal temperature of 99.5° F., 1.6° F. lower than the yeast-treated rats.

[9] = average body temperature of normal rats; assay type: in vivo, rat; conditions: for Mean Rectal Temperature at Indicated Hours Post-Treatment: 100 mg/kg PO
Description: as §1, §2

5-HT2A serotonin receptor, sequence (P28223 whole entry): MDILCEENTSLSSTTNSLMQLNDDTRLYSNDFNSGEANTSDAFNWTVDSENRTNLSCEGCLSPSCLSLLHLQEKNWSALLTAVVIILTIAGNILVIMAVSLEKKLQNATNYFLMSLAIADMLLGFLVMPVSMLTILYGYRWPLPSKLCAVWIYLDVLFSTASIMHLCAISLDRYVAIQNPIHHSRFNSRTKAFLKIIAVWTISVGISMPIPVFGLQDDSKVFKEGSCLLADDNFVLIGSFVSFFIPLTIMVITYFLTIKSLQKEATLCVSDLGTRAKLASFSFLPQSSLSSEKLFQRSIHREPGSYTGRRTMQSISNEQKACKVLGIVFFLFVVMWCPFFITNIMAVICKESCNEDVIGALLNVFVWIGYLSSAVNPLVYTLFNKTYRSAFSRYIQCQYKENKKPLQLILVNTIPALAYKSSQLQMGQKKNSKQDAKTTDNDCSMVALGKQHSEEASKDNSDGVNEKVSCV
recombinant human cyclooxygenase1 (COX1), sequence (P23219 24-599): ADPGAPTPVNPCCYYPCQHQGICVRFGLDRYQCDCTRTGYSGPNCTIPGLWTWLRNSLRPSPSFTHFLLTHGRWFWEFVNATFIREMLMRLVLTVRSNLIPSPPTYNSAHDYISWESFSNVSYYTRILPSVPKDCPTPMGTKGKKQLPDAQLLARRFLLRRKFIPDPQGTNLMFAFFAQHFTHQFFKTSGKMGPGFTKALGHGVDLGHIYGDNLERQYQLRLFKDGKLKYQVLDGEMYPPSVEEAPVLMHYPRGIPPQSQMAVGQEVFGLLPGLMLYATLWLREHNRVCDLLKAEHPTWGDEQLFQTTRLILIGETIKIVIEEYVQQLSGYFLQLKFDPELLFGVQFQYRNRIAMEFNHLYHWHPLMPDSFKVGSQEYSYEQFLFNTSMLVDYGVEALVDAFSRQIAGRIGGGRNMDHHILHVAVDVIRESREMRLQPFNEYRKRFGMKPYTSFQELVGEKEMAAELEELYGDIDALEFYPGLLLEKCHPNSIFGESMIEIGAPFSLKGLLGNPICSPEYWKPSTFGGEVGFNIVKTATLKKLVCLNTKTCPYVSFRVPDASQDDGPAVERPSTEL

Cc1ccc([C@]23CNC[C@H]2C3)cc1 (racemic) [Bicifadine HCl, (±)-1-(4-methylphenyl)-3-azabicyclo[3.1.0]hexane hydrochloride]
alterations in blood pressure [1]: did not cause significant alterations in blood pressure
inhibitory effect on PGE2 synthesis by COX2 [2]: no significant inhibitory effect
inhibitory effect on PGE2 synthesis by COX1 [3]: no significant inhibitory effect
inhibition of radioligand binding to 5-HT2A serotonin receptor [4]: significantly inhibited radioligand binding
occupying binding sites on α1 adrenergic receptor [5]: capable of occupying binding sites
Ki ([5]; 0.25 nM [3H]prazosin, 60 min at 22° C.): 1000 nM
effect on normal human oral temperature (hypothermia) [6]: did not consistently lower normal human oral temperature
Oral Temperature at Indicated Times of Treatment ([6]; 0.5 hr): 98.1 ° F.
Oral Temperature at Indicated Times of Treatment ([6]; 1 hr): 98.1 ° F.
Oral Temperature at Indicated Times of Treatment ([6]; 2 hr): 98.1 ° F.
Oral Temperature at Indicated Times of Treatment ([6]; 3 hr): 98.0 ° F.
Oral Temperature at Indicated Times of Treatment ([6]; 4 hr): 98.1 ° F.
Oral Temperature at Indicated Times of Treatment ([6]; 5 hr): 98.2 ° F.
Oral Temperature at Indicated Times of Treatment ([6]; 6 hr): 98.2 ° F.
Oral Temperature at Indicated Times of Treatment ([6]; Follow-up): 97.8 ° F.
Oral Temperature at Indicated Times of Treatment ([6]; Pre-Dose): 98.1 ° F.
occupying binding sites on α2 adrenergic receptor [7]: capable of occupying binding sites
rectal temperature of yeast-fevered rats ([8]; 50 mg/kg PO, by the first hour after administration, vs pre-treatment temperature): significantly reduced rectal temperature
duration of antipyretic effect ([8]; 100 mg/kg PO): 4 h
rectal temperature of yeast-fevered rats ([8]; 100 mg/kg PO, normal rat temperature 99.5 °F): decrease rectal temperature to levels at or below normal
antipyretic potency compared with aspirin ([8]; aspirin 200 mg/kg PO): more potent antipyretic than aspirin
effect on rectal temperature of normal rats (hypothermia) [9]: did not consistently lower the rectal temperature of normal rats
Mean Rectal Temperature at Indicated Hours Post-Treatment ([9]; 0 h): 98.9 ° F.
Mean Rectal Temperature at Indicated Hours Post-Treatment ([9]; 1 h): 97.9* ° F.
Mean Rectal Temperature at Indicated Hours Post-Treatment ([9]; 2 h): 98.3 ° F.
Mean Rectal Temperature at Indicated Hours Post-Treatment ([9]; 3 h): 98.2 ° F.
Mean Rectal Temperature at Indicated Hours Post-Treatment ([9]; 4 h): 97.5 ° F.
